Source: US8546451B2 (priority 2005, dated 2013)
Marks after values point to notes of the source that are not given here.

System: testosterone, prostate specific antigen (PSA), prostate volume and weight
Assay: 39-week oral pharmacology and toxicology study in male cynomolgus monkey (13-week interim)
Settings: for reduction of prostate volume: six weeks; for reduction of mean prostate weights: thirteen weeks
[1] = Day 7, 10 mg/kg/day oral, Estimated final concentrations
[2] = Day 7, 10 mg/kg/day oral, Quantifiable concentrations only
[3] = Day 7, 100 mg/kg/day oral, Estimated final concentrations
[4] = Day 7, 100 mg/kg/day oral, Quantifiable concentrations only
[5] = Day 14, 1 mg/kg/day oral, Estimated final concentrations
[6] = Day 14, 1 mg/kg/day oral, Quantifiable concentrations only
[7] = Day 14, 10 mg/kg/day oral, Estimated final concentrations
[8] = Day 14, 10 mg/kg/day oral, Quantifiable concentrations only
[9] = Day 14, 100 mg/kg/day oral, Estimated final concentrations
[10] = Day 14, 100 mg/kg/day oral, Quantifiable concentrations only
[11] = Day 28, 1 mg/kg/day oral, Estimated final concentrations
[12] = Day 28, 1 mg/kg/day oral, Quantifiable concentrations only
[13] = Day 28, 10 mg/kg/day oral, Estimated final concentrations
[14] = Day 28, 10 mg/kg/day oral, Quantifiable concentrations only
[15] = Day 28, 100 mg/kg/day oral, Estimated final concentrations
[16] = Day 28, 100 mg/kg/day oral, Quantifiable concentrations only
[17] = Day 64, 1 mg/kg/day oral, Estimated final concentrations
[18] = Day 64, 1 mg/kg/day oral, Quantifiable concentrations only
[19] = Day 64, 10 mg/kg/day oral, Estimated final concentrations
[20] = Day 64, 10 mg/kg/day oral, Quantifiable concentrations only
[21] = Day 64, 100 mg/kg/day oral, Estimated final concentrations
[22] = Day 64, 100 mg/kg/day oral, Quantifiable concentrations only
[23] = Day 90, 1 mg/kg/day oral, Estimated final concentrations
[24] = Day 90, 1 mg/kg/day oral, Quantifiable concentrations only
[25] = Day 90, 10 mg/kg/day oral, Estimated final concentrations
[26] = Day 90, 10 mg/kg/day oral, Quantifiable concentrations only
[27] = Day 90, 100 mg/kg/day oral, Estimated final concentrations
[28] = Day 90, 100 mg/kg/day oral, Quantifiable concentrations only

Compound: O=C(c1ccc(O)c(F)c1)N(c1ccc(O)cc1)c1ccc(F)cc1 [Compound IV, 3-fluoro-N-(4-fluorophenyl)-4-hydroxy-N-(4-hydroxyphenyl)benzamide]
- Mean serum testosterone level [1]: 7.7 ng/mL
- Percentage change of mean serum testosterone levels compared to baseline [1]: 57%
- Mean serum testosterone level [2]: 7.7 ng/mL
- Percentage change of mean testosterone levels compared to baseline [2]: 57%
- suppression of serum testosterone relative to the baseline value (Day 7, 100 mg/kg/day oral): 51%
- Mean serum testosterone level [3]: 2.2* ng/mL
- Percentage change of mean serum testosterone levels compared to baseline [3]: −51%
- Mean serum testosterone level [4]: 2.2 ng/mL
- Percentage change of mean testosterone levels compared to baseline [4]: −51%
- Mean serum testosterone level [5]: 3.8 ng/mL
- Percentage change of mean serum testosterone levels compared to baseline [5]: −48%
- Mean serum testosterone level [6]: 3.8 ng/mL
- Percentage change of mean testosterone levels compared to baseline [6]: −48%
- Mean serum testosterone level [7]: 7.1 ng/mL
- Percentage change of mean serum testosterone levels compared to baseline [7]: 45%
- Mean serum testosterone level [8]: 7.1 ng/mL
- Percentage change of mean testosterone levels compared to baseline [8]: 45%
- suppression of serum testosterone relative to the baseline value (Day 14, 100 mg/kg/day oral): 42%
- Mean serum testosterone level [9]: 2.6 ng/mL
- Percentage change of mean serum testosterone levels compared to baseline [9]: −42%
- Mean serum testosterone level [10]: 2.6 ng/mL
- Percentage change of mean testosterone levels compared to baseline [10]: −42%
- Mean serum testosterone level [11]: 4.7 ng/mL
- Percentage change of mean serum testosterone levels compared to baseline [11]: −35%
- Mean serum testosterone level [12]: 4.7 ng/mL
- Percentage change of mean testosterone levels compared to baseline [12]: −35%
- Mean serum testosterone level [13]: 9.4 ng/mL
- Percentage change of mean serum testosterone levels compared to baseline [13]: 92%
- Mean serum testosterone level [14]: 9.4 ng/mL
- Percentage change of mean testosterone levels compared to baseline [14]: 92%
- suppression of serum testosterone relative to the baseline value (Day 28, 100 mg/kg/day oral): 79%
- Mean serum testosterone level [15]: 0.9* ng/mL
- Percentage change of mean serum testosterone levels compared to baseline [15]: −79%
- Mean serum testosterone level [16]: 0.9 ng/mL
- Percentage change of mean testosterone levels compared to baseline [16]: −79%
- Mean serum testosterone level [17]: 4.3 ng/mL
- Percentage change of mean serum testosterone levels compared to baseline [17]: −41%
- Mean serum testosterone level [18]: 4.3 ng/mL
- Percentage change of mean testosterone levels compared to baseline [18]: −41%
- Mean serum testosterone level [19]: 5.4 ng/mL
- Percentage change of mean serum testosterone levels compared to baseline [19]: 11%
- Mean serum testosterone level [20]: 5.4 ng/mL
- Percentage change of mean testosterone levels compared to baseline [20]: 11%
- suppression of serum testosterone relative to the baseline value (Day 64, 100 mg/kg/day oral): 92%
- Mean serum testosterone level [21]: 0.3* ng/mL
- Percentage change of mean serum testosterone levels compared to baseline [21]: −92%
- Mean serum testosterone level [22]: 0.3 ng/mL
- Percentage change of mean testosterone levels compared to baseline [22]: −92%
- Mean serum testosterone level [23]: 4.2 ng/mL
- Percentage change of mean serum testosterone levels compared to baseline [23]: −42%
- Mean serum testosterone level [24]: 4.2 ng/mL
- Percentage change of mean testosterone levels compared to baseline [24]: −42%
- Mean serum testosterone level [25]: 4.6 ng/mL
- Percentage change of mean serum testosterone levels compared to baseline [25]: −5.5%
- Mean serum testosterone level [26]: 4.6 ng/mL
- Percentage change of mean testosterone levels compared to baseline [26]: −5.5%
- Mean serum testosterone level [27]: 0.2* ng/mL
- Percentage change of mean serum testosterone levels compared to baseline [27]: −96%
- suppression of serum testosterone relative to the baseline value [27]: 96%
- Mean serum testosterone level [28]: 0.2 ng/mL
- Percentage change of mean testosterone levels compared to baseline [28]: −95%
- monkeys with testosterone below the limit of quantification (after 90 days, 100 mg/kg/day oral, LLOQ 0.246 ng/mL): 6 of 10
- testosterone flare (any dose up to 100 mg/kg/day): not observed
- effects on platelet aggregation, prothrombin time (PT) or activated partial thromboplastin time (APTT) (cynomolgus monkey, in vivo): No apparent effects
- reduction of prostate volume (10 mg/kg): 25%
- reduction of prostate volume (100 mg/kg): 45%
- reduction of mean prostate weights (10 mg/kg/day): 24%
- reduction of mean prostate weights (100 mg/kg/day): 21%
